The results in this text go back to patent US20260028354A1, “TETRAHYDRONAPHTHALENE DERIVATIVES AS ESTROGEN RECEPTOR DEGRADERS” (REGENT OF THE UNIVERSITY OF MICHIGAN, priority 2022, published 2026).

One assay deals with ER in MCF-7 cells (Homo sapiens (Human), UniProt P03372). The assay is described as follows: In-cell Western (ICW) ER degradation assay in MCF-7 cells. Format: cell-based. The following applies: for DC50: MCF-7, ER degradation, read-out: MCF7 DC50.
A further assay deals with ER in T47D cells (Homo sapiens (Human), UniProt P03372). The assay is described as follows: In-cell Western (ICW) ER degradation assay in T47D cells. Format: cell-based. The following applies: for DC50: ER degradation.
The next assay addresses CRBN/DDB1 (Homo sapiens (Human), UniProt Q96SW2). Format: binding. The following applies: His tagged CRBN+DDB1, Cy5-labeled Thalidomide probe, one hour; read-out: CRBN HTRF IC50. As for the experimental part: The binding potency was determined using HTRF assay technology (Perkin Elmer). Compounds were serially diluted in DMSO and […] volume was transferred to white 384-well plate.

Setting [1] is: MCF7, read-out: MCF7 Dmax, MCF-7, maximal ER degradation, 16 hrs treatment.
[2] abbreviates: read-out: T47D Dmax, T47D, maximal ER degradation, 16 hrs treatment.
[3] abbreviates: MCF7, MCF-7, maximal ER degradation, 16 hrs treatment, read-out: MCF7 Dmax.
Where [4] appears, read: maximal ER degradation, 16 hrs treatment, read-out: T47D Dmax.

Like-named read-outs stand apart in the source and are kept apart here.

Sequence of CRBN/DDB1 (Q96SW2 whole entry, species assumed): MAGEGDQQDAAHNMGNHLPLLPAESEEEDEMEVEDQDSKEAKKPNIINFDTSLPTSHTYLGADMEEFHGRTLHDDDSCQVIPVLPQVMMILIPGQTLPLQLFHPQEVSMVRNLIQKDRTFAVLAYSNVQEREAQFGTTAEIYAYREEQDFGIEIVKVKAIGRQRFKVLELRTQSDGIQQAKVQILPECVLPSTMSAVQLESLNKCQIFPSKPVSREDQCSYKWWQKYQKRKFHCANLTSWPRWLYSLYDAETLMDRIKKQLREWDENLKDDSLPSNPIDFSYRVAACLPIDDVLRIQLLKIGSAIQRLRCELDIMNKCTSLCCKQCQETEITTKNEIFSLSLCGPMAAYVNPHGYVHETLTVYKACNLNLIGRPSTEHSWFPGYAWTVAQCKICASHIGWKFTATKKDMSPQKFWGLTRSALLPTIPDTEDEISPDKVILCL
Sequence of CRBN/DDB1 (Q16531 whole entry partner, species assumed): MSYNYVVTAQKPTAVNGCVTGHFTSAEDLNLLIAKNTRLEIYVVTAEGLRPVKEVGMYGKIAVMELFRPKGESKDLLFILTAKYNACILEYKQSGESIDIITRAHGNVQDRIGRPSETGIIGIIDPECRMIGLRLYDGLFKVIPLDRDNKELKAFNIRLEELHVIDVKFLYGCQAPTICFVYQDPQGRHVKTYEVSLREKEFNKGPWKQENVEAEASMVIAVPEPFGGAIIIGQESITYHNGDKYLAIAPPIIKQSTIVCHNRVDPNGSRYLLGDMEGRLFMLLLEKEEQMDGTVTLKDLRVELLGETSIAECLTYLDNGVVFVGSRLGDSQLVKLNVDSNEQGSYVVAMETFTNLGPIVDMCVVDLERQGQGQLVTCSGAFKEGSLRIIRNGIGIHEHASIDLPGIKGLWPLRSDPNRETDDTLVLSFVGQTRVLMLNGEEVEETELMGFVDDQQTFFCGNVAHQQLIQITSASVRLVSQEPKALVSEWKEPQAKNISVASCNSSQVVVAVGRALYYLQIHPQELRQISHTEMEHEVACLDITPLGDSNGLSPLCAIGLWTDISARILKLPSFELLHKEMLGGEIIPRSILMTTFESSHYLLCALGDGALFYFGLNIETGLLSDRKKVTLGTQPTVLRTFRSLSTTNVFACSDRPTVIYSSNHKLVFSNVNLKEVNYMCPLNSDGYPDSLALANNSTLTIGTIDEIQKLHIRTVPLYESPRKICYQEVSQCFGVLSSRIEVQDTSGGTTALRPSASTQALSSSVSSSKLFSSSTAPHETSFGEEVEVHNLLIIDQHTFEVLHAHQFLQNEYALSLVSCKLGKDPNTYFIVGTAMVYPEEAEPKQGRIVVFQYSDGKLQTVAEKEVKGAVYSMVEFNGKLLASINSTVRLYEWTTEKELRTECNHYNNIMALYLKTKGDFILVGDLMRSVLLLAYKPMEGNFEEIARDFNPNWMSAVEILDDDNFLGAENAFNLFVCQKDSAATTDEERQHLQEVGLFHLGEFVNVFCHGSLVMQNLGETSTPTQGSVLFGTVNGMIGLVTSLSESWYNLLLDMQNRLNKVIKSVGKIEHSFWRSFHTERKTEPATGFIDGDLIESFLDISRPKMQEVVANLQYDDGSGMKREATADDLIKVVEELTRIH
Sequence of ER in T47D cells (P03372 whole entry): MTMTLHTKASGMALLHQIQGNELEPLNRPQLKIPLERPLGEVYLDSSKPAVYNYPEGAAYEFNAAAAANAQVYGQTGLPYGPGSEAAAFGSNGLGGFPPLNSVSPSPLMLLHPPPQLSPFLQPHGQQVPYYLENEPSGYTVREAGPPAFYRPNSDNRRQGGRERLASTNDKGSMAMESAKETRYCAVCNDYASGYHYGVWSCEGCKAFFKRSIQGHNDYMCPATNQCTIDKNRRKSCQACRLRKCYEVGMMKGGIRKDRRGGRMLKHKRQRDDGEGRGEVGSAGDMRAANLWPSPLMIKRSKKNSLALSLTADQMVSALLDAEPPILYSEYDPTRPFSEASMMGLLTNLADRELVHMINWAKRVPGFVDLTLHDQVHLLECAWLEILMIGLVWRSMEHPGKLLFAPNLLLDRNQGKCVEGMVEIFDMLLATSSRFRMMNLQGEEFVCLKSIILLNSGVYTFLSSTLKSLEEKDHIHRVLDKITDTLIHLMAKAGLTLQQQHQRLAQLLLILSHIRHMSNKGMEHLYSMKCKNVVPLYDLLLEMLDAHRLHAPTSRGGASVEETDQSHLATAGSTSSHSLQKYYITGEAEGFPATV
Sequence of ER in MCF-7 cells (P03372 whole entry): as above

In general, Dmax refers to the greatest extent of degradation seen. As a reminder, the DC50 is the concentration at which degradation of the target reaches its halfway point. One may read the IC50 as the concentration that gives 50% inhibition. `COc1cc(N2CCC(CN3CC[C@@]4(c5ccc(N[C@H]6CCC(=O)NC6=O)cc5)C(C3)C4(F)F)CC2)ccc1[C@@H]1c2ccc(O)cc2CC[C@@H]1c1ccccc1` (stereo partly drawn) [Compound A92, (3S)-3-((4-((1R)-7,7-difluoro-3-((1-(4-((1S,2S)-6-hydroxy-2-phenyl-1,2,3,4-tetrahydronaph-thalen-1-yl)-3-methoxyphenyl)-piperidin-4-yl)methyl)-3-azabi-cyclo[4.1.0]heptan-6-yl)phen-yl)amino)piperidine-2,6-dione]: the Dmax at ER in MCF-7 cells (setting [1]) and on ER in T47D cells (setting [2]) was 25 to 50% each time. The DC50 is below 1 nM on ER in MCF-7 cells (16 hrs treatment) and 1 to 10 nM at ER in T47D cells (16 hrs treatment). For the same compound, the IC50 at CRBN/DDB1 is above 5000 nM.
Take `O=C1CC[C@@H](Nc2ccc(C3CCN(CC4CC5(CCN(c6ccc([C@@H]7c8ccc(O)cc8CC[C@@H]7c7ccccc7)cc6)CC5)C4)CC3)cc2)C(=O)N1` (single isomer, unassigned) [Compound A66]: the greatest degradation seen (Dmax) at ER in MCF-7 cells (setting [3]) and on ER in T47D cells (setting [4]) was 50 to 75% each time. For the same compound, the DC50 on ER in MCF-7 cells (16 hrs treatment) and on ER in T47D cells (16 hrs treatment) was 1 to 10 nM each time. Further, the IC50 on CRBN/DDB1 lay in the range of 50 to 500 nM.
On to `O=C1CC[C@H](N2Cc3cc4c(cc3C2=O)OC[C@H]2CN(C[C@H]3COC5(CCN(c6ccc([C@@H]7c8ccc(O)cc8CC[C@@H]7c7ccccc7)cc6)CC5)C3)CCN42)C(=O)N1` (single isomer, unassigned) [Compound A17], for which the Dmax on ER in MCF-7 cells (setting [3]) and at ER in T47D cells (setting [4]) was 25 to 50% in each case. The DC50 on ER in MCF-7 cells (16 hrs treatment) and on ER in T47D cells (16 hrs treatment) was 1 to 10 nM in each case. Moreover, the IC50 on CRBN/DDB1 fell in the range of 500 to 5000 nM.
In the case of `COc1cc(N2CCC(CN3CCC4(CC3)COc3c4ccc4c3CN([C@H]3CCC(=O)NC3=O)C4=O)CC2)c(F)cc1[C@@H]1c2ccc(O)cc2CC[C@@H]1c1ccccc1` [Compound A93, (S)-3-(1′-((1-(2-fluoro-4-((1S,2S)-6-hydroxy-2-phenyl-1,2,3,4-tetrahydronaphthalen-1-yl)-5-methoxyphenyl)piperidin-4-yl)methyl)-6-oxo-6,8-dihydro-2H,7H-spiro[furo[2,3-e]isoindole-3,4′-piperidin]-7-yl)piperidine-2,6-dione], the Dmax on ER in MCF-7 cells (setting [1]) and at ER in T47D cells (setting [2]) was 50 to 75% in each case. The DC50 on ER in MCF-7 cells (16 hrs treatment) and on ER in T47D cells (16 hrs treatment) was below 1 nM each time. Further, the IC50 at CRBN/DDB1 is below 50 nM.
For `COc1cc(N2CC3(CC(CN4CCN5c6ccc7c(c6OC[C@H]5C4)CN([C@H]4CCC(=O)NC4=O)C7=O)CO3)C2)ccc1[C@@H]1c2ccc(O)cc2CC[C@@H]1c1ccccc1` (single isomer, unassigned) [Compound A48], the Dmax at ER in MCF-7 cells (setting [3]) and at ER in T47D cells (setting [4]) was 50 to 75% each time. For the same compound, the DC50 at ER in MCF-7 cells (16 hrs treatment) and on ER in T47D cells (16 hrs treatment) was 1 to 10 nM in each case. At CRBN/DDB1, the IC50 fell in the range of 50 to 500 nM.
Take `O=C1CC[C@@H](Nc2ccc([C@@]34CCN(CC5CCC6(CC5)CN(c5ccc([C@@H]7c8ccc(O)cc8CC[C@@H]7c7ccccc7)cc5)C6)C[C@@H]3C4(F)F)cc2)C(=O)N1` [Compound A64, (R)-3-((4-((1R,6R)-7,7-difluoro-3-((2-(4-((1R,2S)-6-hydroxy-2-phenyl-1,2,3,4-tetra-hydronaphthalen-1-yl)phenyl)-2-azaspiro[3.5]nonan-7-yl)-methyl)-3-azabicyclo[4.1.0]heptan-6-yl)phenyl)amino)-piperidine-2,6-dione]: the Dmax at ER in MCF-7 cells (setting [1]) and at ER in T47D cells (setting [2]) was 50 to 75% each time. The DC50 on ER in MCF-7 cells (16 hrs treatment) and on ER in T47D cells (16 hrs treatment) was 1 to 10 nM in each case. Moreover, the IC50 at CRBN/DDB1 is above 5000 nM.
For the compound `O=C1CC[C@H](Nc2ccc(C3CCN(C[C@@H]4COC5(CCN(c6ccc([C@H]7c8ccc(O)cc8CC[C@H]7c7ccccc7)cc6)CC5)C4)CC3)cc2)C(=O)N1` (single isomer, unassigned) [Compound A50], the Dmax on ER in MCF-7 cells (setting [3]) and at ER in T47D cells (setting [4]) was 50 to 75% in each case. In addition, the DC50 on ER in MCF-7 cells (16 hrs treatment) and at ER in T47D cells (16 hrs treatment) was below 1 nM in each case. For the same compound, on CRBN/DDB1, the IC50 was 50 to 500 nM.
For `COc1cc(N2CCC(CN3CCN4c5ccc6c(c5OC[C@H]4C3)CN([C@H]3CCC(=O)NC3=O)C6=O)CC2)c(F)cc1[C@H]1c2ccc(O)cc2CC[C@H]1c1ccccc1` [Compound A39, (S)-3-((R)-7-((1-(2-fluoro-4-((1R,2R)-6-hydroxy-2-phenyl-1,2,3,4-tetrahydronaphthalen-1-yl)-5-methoxyphenyl)piper-idin-4-yl)methyl)-1-oxo-1,3,5,5a,6,7,8,9-octahydro-2H-pyrazino[1′,2′:4,5][1,4]oxazino [2,3-e]isoindol-2-yl)piperidine-2,6-dione], the Dmax on ER in MCF-7 cells (setting [3]) lay in the range of 25 to 50%; on ER in T47D cells (setting [4]), 50 to 75%. The 50% degradation concentration (DC50) at ER in MCF-7 cells (16 hrs treatment) was in the range of 10 to 100 nM; on ER in T47D cells (16 hrs treatment), 1 to 10 nM. Moreover, the IC50 on CRBN/DDB1 lay in the range of 50 to 500 nM.
As to `COc1cc(N2CCC3(CC2)CC(CN2CCN4c5ccc(C(=O)N[C@H]6CCC(=O)NC6=O)nc5OC[C@@H]4C2)C3)ccc1[C@H]1c2ccc(O)cc2CC[C@H]1c1ccccc1` (single isomer, unassigned) [Compound A107], the Dmax on ER in MCF-7 cells (setting [3]) and at ER in T47D cells (setting [4]) was 50 to 75% in each case. In addition, the DC50 at ER in MCF-7 cells (16 hrs treatment) and at ER in T47D cells (16 hrs treatment) was below 1 nM each time. The IC50 on CRBN/DDB1 is above 5000 nM.
Turning to `O=C1CC[C@H](Nc2ccc(C3CCN(C[C@@H]4COC5(CCN(c6ccc([C@@H]7c8ccc(O)cc8CC[C@@H]7c7ccccc7)cc6)CC5)C4)CC3)cc2)C(=O)N1` (single isomer, unassigned) [Compound A28], the greatest degradation seen (Dmax) at ER in MCF-7 cells (setting [3]) and at ER in T47D cells (setting [4]) was 25 to 50% each time. For the same compound, the DC50 at ER in MCF-7 cells (16 hrs treatment) and on ER in T47D cells (16 hrs treatment) was 10 to 100 nM each time. Besides, the IC50 at CRBN/DDB1 was in the range of 50 to 500 nM.
`O=C1CC[C@H](Nc2ccc(C3CCN(C[C@@H]4COC5(CCN(c6ccc([C@H]7c8ccc(O)cc8CC[C@H]7c7ccccc7)cc6)CC5)C4)CC3)c(F)c2)C(=O)N1` (single isomer, unassigned) [Compound A59]: the Dmax on ER in MCF-7 cells (setting [3]) and on ER in T47D cells (setting [4]) was below 25% throughout. Also, the figures for the DC50 at ER in MCF-7 cells (16 hrs treatment) and on ER in T47D cells (16 hrs treatment) were below 1 nM and above 100 nM, respectively. Also, on CRBN/DDB1, the IC50 fell in the range of 50 to 500 nM.
In the case of `COc1cc(C(=O)NC2CCC(=O)NC2=O)ncc1N1CCN(CC2CCN(c3ccc([C@@H]4c5ccc(O)cc5CC[C@@H]4c4ccccc4)cc3)CC2)CC1` (stereo partly drawn) [Compound A5, N-(2,6-dioxopiperidin-3-yl)-5-(4-((1-(4-((1R,2S)-6-hydroxy-2-phenyl-1,2,3,4-tetrahydro-naphthalen-1-yl)phenyl)piper-idin-4-yl)methyl)piperazin-1-yl)-4-methoxypicolinamide], the Dmax on ER in MCF-7 cells (setting [3]) fell in the range of 50 to 75%; at ER in T47D cells (setting [4]), 25 to 50%. In addition, the DC50 at ER in MCF-7 cells (16 hrs treatment) and on ER in T47D cells (16 hrs treatment) was below 1 nM in each case. At CRBN/DDB1, the IC50 was above 5000 nM.
Regarding `O=C1CC[C@H](Nc2ccc(C3CCN(C[C@@H]4COC5(CCN(c6ccc([C@@H]7c8ccc(O)cc8CC[C@@H]7c7ccccc7)cc6)CC5)C4)CC3)c(F)c2)C(=O)N1` (single isomer, unassigned) [Compound A61], the Dmax on ER in MCF-7 cells (setting [3]) and at ER in T47D cells (setting [4]) was below 25% each time. In addition, the DC50 at ER in MCF-7 cells (16 hrs treatment) and at ER in T47D cells (16 hrs treatment) was above 100 nM each time. Moreover, the IC50 on CRBN/DDB1 fell in the range of 50 to 500 nM.
Regarding `COc1cc(N2CCC3(CC2)CC(CN2CCC(c4ccc(NC5CCC(=O)NC5=O)cc4F)CC2)C3)ccc1[C@@H]1c2ccc(O)cc2CC[C@@H]1c1ccccc1` (stereo in doubt) [Compound A106, (R)-3-((3-fluoro-4-(1-((7-(4-((1S,2S)-6-hydroxy-2-phenyl-1,2,3,4-tetrahydronaphthalen-1-yl)-3-methoxyphenyl)-7-aza-spiro[3.5]nonan-2-yl)methyl)-piperidin-4-yl)phenyl)amino)-piperidine-2,6-dione], the DC50 at ER in MCF-7 cells (16 hrs treatment) and on ER in T47D cells (16 hrs treatment) was below 1 nM in each case. In addition, at ER in MCF-7 cells (MCF-7, maximal ER degradation, 16 hrs treatment), the “MCF7 Dmax” value was “B (“B”: >50 and <75%)”. Moreover, the “T47D Dmax” value at ER in T47D cells (maximal ER degradation, 16 hrs treatment) is “B (“B”: >50 and <75%)”. At CRBN/DDB1, the IC50 fell in the range of 50 to 500 nM.
On to `O=C1CCC(NC(=O)c2ccc3c(n2)OC[C@H]2CN(CC4CCN(c5ccc([C@H]6c7ccc(O)cc7CC[C@H]6c6ccccc6)cc5)CC4)CCN32)C(=O)N1` (stereo in doubt) [Compound A4, (4aR)-N-(2,6-dioxopiperidin-3-yl)-3-((1-(4-((1S,2R)-6-hydroxy-2-phenyl-1,2,3,4-tetrahydronaphthalen-1-yl)-phenyl)piperidin-4-yl)meth-yl)-1,2,3,4,4a,5-hexahydro-pyrazino[1,2-d]pyrido[2,3-b] [1,4]oxazine-8-carboxamide], for which the Dmax on ER in MCF-7 cells (setting [3]) and on ER in T47D cells (setting [4]) was 50 to 75% each time. The DC50 at ER in MCF-7 cells (16 hrs treatment) is 1 to 10 nM; on ER in T47D cells (16 hrs treatment) it was below 1 nM. For the same compound, the IC50 at CRBN/DDB1 was in the range of 500 to 5000 nM.
For `O=C1CC[C@H](N2Cc3c(ccc4c3OCC43CCN(CC4CC5(CCN(c6ccc([C@H]7c8ccc(O)cc8CC[C@H]7c7ccccc7)cc6F)CC5)C4)CC3)C2=O)C(=O)N1` [Compound A148, (S)-3-(1′-((7-(2-fluoro-4-((1S,2R)-6-hydroxy-2-phenyl-1,2,3,4-tetrahydronaphthalen-1-yl)phenyl)-7-azaspiro[3.5]nonan-2-yl)methyl)-6-oxo-6,8-dihydro-2H,7H-spiro[furo[2,3-e]isoindole-3,4′-piperidin]-7-yl)piperidine-2,6-dione], the figures for the Dmax at ER in MCF-7 cells (setting [1]) and at ER in T47D cells (setting [2]) were 50 to 75% and above 75%, respectively. Besides, the 50% degradation concentration (DC50) at ER in MCF-7 cells (16 hrs treatment) and at ER in T47D cells (16 hrs treatment) was below 1 nM in each case. At CRBN/DDB1, the IC50 is below 50 nM.
